Experiment [1] deals with isolated rat brain sodium channels (site 5). Particulars: read-out: Ki, competitive displacement assay, synaptosomal binding.
Experiment [2] concerns sodium channels. Put plainly: Patch clamp single sodium channel currents in membrane patches. The class given is cell-based. Conditions: 100 nM, n=6, FIG. 2C, 2D. On the procedure: FIG. 2A-D illustrates single sodium channel currents in patch clamp sodium channels during successive command depolarizations to −10 mV from a command potential of −100 mV in the same membrane patch before (2A) and after (2B) exposure to β-naphthoyl-PbTx-3 (100 nM, n=6). […] The average area under the β-naphthoyl-PbTx-3 curve was 71.8±18.3% less than that of PbTx-3.
FIG. 3A-E illustrates the steady state currents in four different membrane patches at a steady state command voltage of −50 mV. 3A are control traces preceeding the test with PbTx-3, and are representative of control recordings observed in all four patches during 7.2 s of continuous observation. 3B are traces for membrane patches exposed to PbTx-3 (100 nM, […]). 3C are traces for membrane patches exposed to benzoyl-PbTx-3 (100 nM, n=6). 3D are traces for membrane patches exposed to α-naphthoyl-PbTx-3 (100 nM, n=6). 3E are traces for membrane patches exposed to β-naphthoyl-PbTx-3 (100 nM, n=6). The experimental recordings are representative of 7.2 s of continuous observation in PbTx-3 or the particular derivative.

Experiment [3] has as its system isolated rat brain sodium channels (site 5). Particulars: Purkerson-Parker, et al., 2000; cited from earlier work.
For experiment [4], the system named is sodium channels. Particulars: steady state; Purkerson-Parker, et al., 2000; cited from earlier work.
Where [5] appears, read: isolated rat brain sodium channels, FIG. 1.

Like-named read-outs stand apart in the source and are kept apart here.

Usually Ki stands for the equilibrium dissociation constant of an inhibitor or competing ligand from its target.

As to `C=C(CO)CC1CC(O)C2(C)OC3CC4OC5CC6(C)OC7(C)CCC8OC9CC%10(C)OC%11C(C)=CC(=O)OC%11CC%10OC9CC(C)C8OC7CC6OC5(C)CC=CC4OC3CC2O1` (centres unmarked) [PbTx-3, reference compound], the Ki in experiment [1] was found to be 3 nM.
On to Benzoyl-PbTx-3, for which the Ki in experiment [1] (setting [5]) is 0.2 nM.
On to α-Naphthoyl-PbTx-3, for which, in experiment [1] (setting [5]), the Ki stood at 4.68 nM.
Turning to β-Naphthoyl-PbTx-3, the Ki in experiment [1] (setting [5]) was 1.06 nM. Besides, the “average area under the ensemble average curve, less than that of PbTx-3” value in the experiment on sodium channels [2] (depolarizations to −10 mV from command potential of −100 mV) stood at 71.8±18.3%. In addition, the “peak sodium current (ensemble averages)” value with sodium channels [2] (depolarizations to −10 mV from −100 mV) was “reduction in peak sodium current”. In addition, the “displacement of native toxin from binding site” value in experiment [3] is listed as “displaces the native toxin from its binding site”. Further, in the experiment on sodium channels [4], the “opening of sodium channels” value is “does not elicit opening of sodium channels in steady state”.
